Data from US20260306460A1, “COMPOSITION FOR REMOVING AND INHIBITING SENESCENT CELLS, AND USES THEREOF” (LIFECEUTIX CO., LTD., priority 2023, published 2026).
*1 amine or outer side, *2 acyl side, *3 side chain or, on linkers, in order; H or OH if unused. Where a SMILES comes first, the peptide text is derived from it. Bridges are numbered along the chain shown (N, C = ends). [ ]: non-standard residue; d: D form. The star is where a group is joined. X1 = CC[C@H](C)[C@@H](N[*:1])[C@@H](O)CC(=O)O[C@H](C(=O)[C@H](C)C(=O)[*:2])C(C)C; NMeY = CN[C@@H](Cc1ccc(O)cc1)C(=O)O; dNMeL = CN[C@H](CC(C)C)C(=O)O; Pyruvoyl = CC(=O)C(=O)*

Key:
[1] = tested on: senescent cells; experiment: Viability of senescent cells (CellTiter-Glo), Example 17, Table 13; conditions: Homo sapiens, read-out: Survival (%)
Method: Cells induced to undergo senescence by doxorubicin treatment were treated with test compound at designated concentrations and measured using the CellTiter-Glo Luminescent Cell Viability Assay (Promega).

[2] = tested on: senescent A549 cells; experiment: Viability of senescent A549 cells (CellTiter-Glo), Example 18, Table 15; conditions: Homo sapiens, A549, read-out: Survival (%)
Method: Senescence-induced cancer cells treated with doxorubicin were treated with the test compound at designated concentrations, and cell viability was measured using the CellTiter-Glo Luminescent Cell Viability Assay (Promega).

Row | Compound | viability at 1.1 µM [1] | viability at 10 µM [1] | viability at 1.1 µM [2] | viability at 10 µM [2] | viability at 30 µM [1] | viability at 30 µM [2] | viability at 90 µM [2] | viability at 90 µM [1]
1 | O=C1Nc2ccccc2/C1=C1/Nc2ccc(C(=O)NCC3CCN(C(=O)CCl)CC3)cc2C1=O [LX-5328] | 54.3% | 2% | 62.7% | 0.4% |  |  |  | 
2 | CC(C)(C)OC(=O)NC1CCN(c2ccc(-c3cnc4[nH]cc(C(=O)C(=O)NCCc5ccccn5)c4c3)cn2)CC1 [LX-5341] | 99.1% | 48.5% | 94.6% | 55.4% | 3.5% | 13.7% |  | 
3 | C#Cc1nc(C(=O)N2[C@@H](CCCC)Cc3cc(C=C)ccc3[C@@H]2c2ccc(NC34CC5CC(CC(C5)C3)C4)cc2)cs1 [LX-5362] | 42.5% |  | 61.8% |  |  |  |  | 
4 | C[C@H]1Oc2cc(cnc2N)-c2c(nn(C)c2C#N)CN(C)C(=O)c2ccc(F)cc21 [LX-5449, Lorlatinib] | 89.1% | 44.1% | 91.3% | 44.3% | 8.7% | 2.4% |  | 
5 | NC(=O)c1ccc(-c2cc3c(NC4CCS(=O)(=O)CC4)cccc3n2CC(F)(F)F)cc1 [LX-5904] | 103% | 25.9% | 95.4% | 45.2% | 2.2% | 10.9% |  | 
6 | C=C(C#N)CNc1c(OC)ccc2ccc(-c3ccc(S(C)(=O)=O)cn3)cc12 [LX-5906] | 97.2% | 30.7% | 98.7% | 41.5% | 0.4% | 5.9% |  | 
7 | C=C(CN1Cc2c(ccc3ccc(-c4cc(NC(C)=O)cc(OC)c4)cc23)C1=O)C(N)=O [LX-5907] | 95.5% | 19.5% | 91.8% | 39.4% | 1.7% | 14.4% |  | 
8 | NS(=O)(=O)OC[C@@H]1C[C@@H](n2ccc3c(N[C@H]4CCc5ccccc54)ncnc32)C[C@@H]1O [LX-6202, Pevonedistat] | 1.5% |  | 53.3% |  |  |  |  | 
9 | COc1cc(Nc2ncc3c(n2)-c2ccc(Cl)cc2C(c2c(F)cccc2OC)=NC3)ccc1C(=O)O [LX-6203, Alisertib] | 75.1% | 13.1% | 96.4% | 30.7% |  | 2.1% |  | 
10 | CCN(CCCOc1ccc2c(Nc3cc(CC(=O)Nc4cccc(F)c4)n[nH]3)ncnc2c1)CCOP(=O)(O)O [LX-6205, Barasertib] | 3.8% |  | 57.4% |  |  |  |  | 
11 | CC[C@@H]1C(=O)N(C)c2cnc(Nc3ccc(C(=O)N[C@H]4CC[C@H](N5CCN(CC6CC6)CC5)CC4)cc3OC)nc2N1C(C)C [LX-6207, Volasertib] | 68.7% | 8.6% | 88.2% | 41% |  | 9.4% |  | 
12 | CC[C@H](C)[C@H]1NC(=O)[C@@H](NC(=O)[C@@H](CC(C)C)N(C)C(=O)[C@@H]2CCCN2C(=O)C(C)=O)[C@@H](C)OC(=O)[C@H](Cc2ccc(OC)cc2)N(C)C(=O)[C@@H]2CCCN2C(=O)[C@H](CC(C)C)NC(=O)[C@@H](C)C(=O)[C@H](C(C)C)OC(=O)C[C@@H]1O [LX-6212, Plitidepsin] (Pyruvoyl-P[dNMeL]T[X1]LP[NMeY](Me); ester 3-C) | 52.3% |  | 75.7% | 0.9% |  |  |  | 
13 | Cc1cccc2c1NC(=O)[C@@H](NC(=O)[C@H](CCC(F)(F)F)[C@H](CCC(F)(F)F)C(N)=O)N=C2c1cccc(F)c1 [LX-6514] | 97.2% | 63.3% | 107% | 51.2% | 2.7% | 0.2% |  | 
14 | CCNCC[C@H](O)CNCCCCNC[C@@H](O)CCNCC [LX-6516, Ivospemin] | 93.3% | 71.1% | 91.7% | 79.6% | 31.8% | 27.6% |  | 
15 | Nc1nc2nc[nH]c2c(=S)[nH]1 [LX-6530, Thioguanine] | 106% | 112% | 97.9% | 83.9% | 46.1% | 61.1% | 10.3% | 
16 | C[C@@]12C[C@@]3(O)O[C@@H](O1)[C@]1(COC(=O)c4ccccc4)[C@H]3C[C@@]12O[C@@H]1O[C@H](CO)[C@@H](O)[C@H](O)[C@H]1O [LX-6804, Paeoniflorin] | 87.5% | 28.5% | 78.8% | 40.8% |  | 8.4% |  | 
17 | Nc1cc(F)ccc1NC(=O)c1ccc(CNC(=O)/C=C/c2cccnc2)cc1 [LX-6809, Chidamide] | 87.5% | 53.3% | 100% | 63.7% | 17.8% | 23.9% |  | 
18 | COc1ccc(F)cc1C(=O)NCc1ccc(-c2nn([C@@H](C)C(F)(F)F)c(N)c2C(N)=O)cc1 [LX-6981, Pirtobrutinib] | 0.2% |  | 43.1% |  |  |  |  | 

Row | Compound | viability at 1.1 µM [1] | viability at 10 µM [1] | viability at 1.1 µM [2] | viability at 10 µM [2] | viability at 30 µM [1] | viability at 30 µM [2] | viability at 90 µM [2] | viability at 90 µM [1]
19 | COc1ccc(CN2C3CC2CN(c2ccc(-c4cc(OCC(C)(C)O)cn5ncc(C#N)c45)cn2)C3)cn1 [LX-6988, Selpercatinib] | 93.5% | 53.7% | 98.2% | 46.3% | 3.7% | 5.7% |  | 
20 | CCCCCCCC/C(=C\CCCCCCCC(=O)O)[N+](=O)[O-] [LX-7111, 10-Nitrooleic acid] | 78.1% | 22% | 79.2% | 43.7% |  | 0.8% |  | 
21 | O=c1sn(-c2cccc3ccccc23)c(=O)n1Cc1ccccc1 [LX-7121, Tideglusib] | 94.7% | 57.9% | 76.5% | 52.4% | 3.9% | 12.8% |  | 
22 | COc1ccc(C[C@@H](C)[C@@H](C)Cc2ccc(OC)c(OC)c2)cc1OC [LX-7122, Terameprocol] | 109% | 94.4% | 118% | 71.3% | 39.3% | 15.7% |  | 
23 | Cn1cc(C2=C(c3cn(C4CCN(Cc5ccccn5)CC4)c4ccccc34)C(=O)NC2=O)c2ccccc21 [LX-7135, Enzastaurin] | 75.7% |  | 94.7% | 5.7% |  |  |  | 
24 | Cc1ccccc1CN1C(=O)C2=C(CCN(Cc3ccccc3)C2)N2CCN=C12 [LX-7261, Dordaviprone] | 63.7% |  | 52.4% |  |  |  |  | 
25 | O=C1C2=C(CCN(Cc3ccccc3)C2)N2CCN=C2N1Cc1ccc(F)cc1F [LX-7262] | 52.8% |  | 69.5% |  |  |  |  | 
26 | Nc1ncn([C@H]2C[C@@H](O)[C@@H](CO)S2)c(=O)n1 [LX-7288, 4′-thio-5-aza-2′-deoxycytidine] | 41.8% |  | 48.3% |  |  |  |  | 
27 | N=C(NC(=N)N1CCCC1)Nc1ccc(OC(F)(F)F)cc1 [LX-7403, Lixumistat] | 94.5% | 72.3% | 99.5% | 52.7% | 38.4% | 7.5% |  | 
28 | C#CCC(Cc1cnc2nc(N)nc(N)c2n1)c1ccc(C(=O)N[C@@H](CCC(=O)O)C(=O)O)cc1 (stereo partly shown) [LX-7405, Pralatrexate] | 100% | 79% | 94.7% | 78.4% | 40.6% | 12.1% |  | 
29 | CS(=O)(=O)c1ccc(Oc2cc(F)cc(C#N)c2)c2c1[C@H](O)[C@H](F)[C@@H]2F [LX-7451, Belzutifan] | 105% | 39.2% | 100% | 68.7% |  | 10.7% |  | 
30 | N[C@@H](CCC(=O)N[C@@H](CS(=O)(=O)CCOP(=O)(N(CCCl)CCCl)N(CCCl)CCCl)C(=O)N[C@@H](C(=O)O)c1ccccc1)C(=O)O [LX-7463, Canfosfamide] | 88.8% | 32.1% | 96.5% | 43.3% |  | 0.1% |  | 
31 | NS(=O)(=O)NCCNc1nonc1C(=NO)Nc1ccc(F)c(Br)c1 [LX-8804, Epacadostat] | 54.5% |  | 71.5% | 2.1% |  |  |  | 
32 | NCCCC(O)(P(=O)(O)O)P(=O)(O)O [LX-9105, Alendronate] | 102% | 96% | 105% | 96.2% | 89.9% | 57.1% | 6.9% | 4.2%
33 | Cc1ncc([N+](=O)[O-])n1CCO [LX-9107, Metronidazole] | 106% | 87.3% | 95.6% | 77.8% | 26.2% | 5% |  | 
34 | COc1cc(Cc2cnc(N)nc2N)cc(OC)c1OC [LX-9114, Trimethoprim] | 102% | 88.6% | 95.2% | 74.4% | 16.1% | 20.7% |  | 
35 | CC(C)C[C@H](CN)CC(=O)O [LX-9131, Pregabalin] | 81.9% | 47.7% | 91.7% | 83.3% | 13.2% | 57.9% | 12.4% | 
36 | CCOC(=O)C1=CCCC[C@H]1S(=O)(=O)Nc1ccc(F)cc1Cl [LX-9137, Resatorvid] | 90.5% | 43.8% | 91.8% | 37.2% | 14.6% | 8.8% |  | 
